Patent US20070009621A1, “Correcting systemic androgen levels using Eurycoma longifolia” (priority 2005, published 2007)

System: rat testicular cell homogenate
Assay: Incubation of rat testicular homogenate with pregnenolone and extract, capillary gas chromatography of steroids
Type: biochemical
Conditions: gas capillary analysis
Procedure: To preliminary assess the activity of Eurycoma longifolia, an extract of it was prepared and incubated with rat testicular cell homogenate. After the incubation was completed, the samples were measured using capillary gas chromatography to measure the presence of various hormones. 500 g of the dried pulverized root was boiled exhaustively with 5 L of distilled water for 24 hours. The extract was concentrated to a 40% mass, allowed to cool to room temperature, filtered using a 4 micron filter, then centrifuged at 10,000 rpm for five minutes. Supernatant was collected and freeze-dried yielding yellow brown colored fine powder. Tris/sucrose buffer, PH 7.4 was used as homogenizing buffer and medium for suspending the testicular homogenate. This buffer, consisting of 0.25M sucrose, 0.05M Tris-HCL, 0.025M KCl and 0.005M MgCl2H2O was prepared fresh and kept cool at 4° C. Sprague Dawley albino male rats were sacrificed by stunning followed by cervical dislocation. Testes were removed quickly, pooled and homogenized in Tris/sucrose buffer (10% w/v) using homogenizer. Homogenate was then centrifuged at 1000×g (3000 rpm) for 20 minutes to remove the nuclei and cell debris. Post-nuclei suspension was used for incubation studies; a portion of the suspension was reserved for protein determination. 10 ml of the testes homogenate was first treated with 5 ml ethyl acetate before incubation process. […]

## CC(=O)[C@H]1CC[C@H]2[C@@H]3CC=C4C[C@@H](O)CC[C@]4(C)[C@H]3CC[C@]12C [Prenenolone, Pregnenolone]
16-androstene steroid metabolite (pheromone)
  An α: 1.62
16-androstene steroid metabolites (pheromones)
  An β Andien β: 1.99
